According to publication PMC7112232, “Computational design of substrate selective inhibition” (PLoS Computational Biology, 2020):

Legend:
[1] = biological target: T1, Prolyl Oligopeptidase (POP) (Homo sapiens, UniProt P48147); test: RP-HPLC cleavage assay with purified rhPOP (TRH as substrate); Km/Vmax and Dixon plots; format: biochemical
T1 construct: gene PREP; recombinant human POP (rhPOP), GST moiety removed
T1 sequence (P48147 1-710): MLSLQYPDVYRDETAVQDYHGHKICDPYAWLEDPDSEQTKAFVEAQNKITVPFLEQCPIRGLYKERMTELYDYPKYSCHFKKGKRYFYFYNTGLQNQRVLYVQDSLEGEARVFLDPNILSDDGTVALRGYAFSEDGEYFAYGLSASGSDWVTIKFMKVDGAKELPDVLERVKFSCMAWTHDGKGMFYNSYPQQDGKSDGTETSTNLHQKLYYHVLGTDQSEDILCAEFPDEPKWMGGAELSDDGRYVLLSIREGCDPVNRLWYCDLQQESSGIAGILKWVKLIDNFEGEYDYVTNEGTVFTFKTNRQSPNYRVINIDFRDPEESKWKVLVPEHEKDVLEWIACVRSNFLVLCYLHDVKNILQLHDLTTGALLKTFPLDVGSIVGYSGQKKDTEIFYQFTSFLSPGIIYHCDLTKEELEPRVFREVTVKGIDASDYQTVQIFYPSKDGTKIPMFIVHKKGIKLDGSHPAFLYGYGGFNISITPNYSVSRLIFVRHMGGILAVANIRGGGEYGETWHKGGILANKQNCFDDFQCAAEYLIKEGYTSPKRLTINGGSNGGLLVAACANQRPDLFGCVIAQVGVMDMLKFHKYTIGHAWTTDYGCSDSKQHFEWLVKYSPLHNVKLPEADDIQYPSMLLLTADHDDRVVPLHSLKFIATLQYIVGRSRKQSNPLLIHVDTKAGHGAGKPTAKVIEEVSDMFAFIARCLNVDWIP

[2] = biological target: T1, Prolyl Oligopeptidase (POP); test: RP-HPLC cleavage assay with purified rhPOP (TRH as substrate); Dixon plots; format: biochemical

| SMILES | IC50 [1] [µM] | IC50 [2] [µM] |
| --- | --- | --- |
| CCOC(=O)CN1C(=O)NC(CC)(c2ccccc2)C1=O (centres unmarked) [T5450157] | 130 | – |
| O=C(CCC(=O)N1CCCC1)c1ccccc1 [T6816369] | – | 32.1 |
